For one test, the target named is PTK2 (FAK) (Homo sapiens, UniProt Q05397). The test can be described thus: Z'-LYTE SelectScreen biochemical kinase assay PTK2 (FAK). The source says:
(§1) Thermo Fisher Scientific SelectScreen™ Biochemical Kinase Profiling Service Z′-LYTE™ Screening Protocol and Assay Conditions Assay Theory
(§2) The […] biochemical assay employs a fluorescence-based, coupled-enzyme format and is based on the differential sensitivity of phosphorylated and non-phosphorylated peptides to proteolytic cleavage. The peptide substrate is labeled with two fluorophores—one at each end—that make up a FRET pair. In the primary reaction, the kinase transfers the gamma-phosphate of ATP to a single tyrosine, serine or threonine residue in a synthetic FRET-peptide. In the secondary reaction, a site-specific protease recognizes and cleaves non-phosphorylated FRET-peptides. Phosphorylation of FRET-peptides suppresses cleavage by the Development Reagent. Cleavage disrupts FRET between the donor (i.e., coumarin) and acceptor (i.e., fluorescein) fluorophores on the FRET-peptide, whereas uncleaved, phosphorylated FRET-peptides maintain FRET. A ratiometric method, which calculates the ratio (Emission Ratio=Coumarin emission (445 nm)/Fluorescein emission (520 nm)) of donor emission to acceptor emission after excitation of the donor fluorophore at 400 nm, is used to quantitate reaction progress, as shown in the equation below. A significant benefit of this ratiometric method for quantitating reaction progress is the elimination of well-to-well variations in FRET-peptide concentration and signal intensities. As a result, the assay yields very high Z′-factor values (>0.7) at a low percent phosphorylation. Both cleaved and uncleaved FRET-peptides contribute to the fluorescence signals and therefore to the Emission Ratio. The extent of phosphorylation of the FRET-peptide can be calculated from the Emission Ratio. The Emission Ratio will remain low if the FRET-peptide is phosphorylated (i.e., no kinase inhibition) and will be high if the FRET-peptide is non-phosphorylated (i.e., kinase inhibition).
(§3) The Test Compounds are screened in 1% DMSO (final) in the well. For 10 point titrations, 3-fold serial dilutions are conducted from the starting concentration of the customer's choosing.
(§4) All Peptide/Kinase Mixtures are diluted to a 2× working concentration in the appropriate Kinase Buffer (see section Kinase Specific Assay Conditions for a complete description).
(§5) All ATP Solutions are diluted to a 4× working concentration in Kinase Buffer (50 mM HEPES pH 7.5, 0.01% BRIJ-35, 10 mM MgCl2, 1 mM EGTA). ATP Km apparent is previously determined using a Z″-LYTE assay.
(§6) The Development Reagent is diluted in Development Buffer (see section Kinase-Specific Assay Conditions—Direct and Cascade for a complete description).
(§7) Bar-coded Corning, low volume NBS, black 384-well plate (Corning Cat. #4514) • 1. 100 nL—100× Test Compound in 100% DMSO • 2. 2.4 μL—Kinase buffer • 3. 5 μL—2× Peptide/Kinase Mixture • 4. 2.5 μL—4×ATP Solution • 5. 30—second plate shake • 6. 60—minute Kinase Reaction incubation at room temperature • 7. 5 μL—Development Reagent Solution • 8. 30—second plate shake • 9. 60—minute Development Reaction incubation at room temperature • 10. Read on fluorescence plate reader and analyze the data Z′-LYTE Assay Controls
(§8) SelectScreen Kinase Profiling Service uses XLfit from IDBS. The dose response curve is curve fit to model number 205 (sigmoidal dose-response model).
The 2×PTK2 (FAK)/Tyr 07 mixture is prepared in 50 mM HEPES pH 7.5, 0.01% BRIJ-35, 10 mM MgCl2, 1 mM EGTA. The final 10 μL Kinase Reaction consists of 12.5-100 ng PTK2 (FAK) and 2 μM Tyr 07 in 50 mM HEPES pH 7.5, 0.01% BRIJ-35, 10 mM MgCl2, 1 mM EGTA. After the 1 hour Kinase Reaction incubation, 5 μL of a 1:16 dilution of Development Reagent B is added.

In a further test the target is CDK5/p35 (Homo sapiens, UniProt Q00535). The test can be described thus: Z'-LYTE SelectScreen biochemical kinase assay CDK5/p35.
Text: as §1, §2, §3, §4, §5, §6, §7, §8
The 2×CDK5/p35/Ser/Thr 12 mixture is prepared in 50 mM HEPES pH 7.5, 0.01% BRIJ-35, 10 mM MgCl2, 1 mM EGTA. The final 10 μL Kinase Reaction consists of 0.14-1.3 ng CDK5/p35 and 2 μM Ser/Thr 12 in 50 mM HEPES pH 7.5, 0.01% BRIJ-35, 10 mM MgCl2, 1 mM EGTA. After the 1 hour Kinase Reaction incubation, 5 μL of a 1:4096 dilution of Development Reagent A is added.

The target in a further test is KDR (VEGFR2) (Homo sapiens, UniProt P35968). In words: Z'-LYTE SelectScreen biochemical kinase assay KDR (VEGFR2).
Text: as §1, §2, §3, §4, §5, §6, §7, §8
The 2×KDR (VEGFR2)/Tyr 01 mixture is prepared in 50 mM HEPES pH 7.5, 0.01% BRIJ-35, 10 mM MgCl2, 1 mM EGTA. The final 10 μL Kinase Reaction consists of 1-30 ng KDR (VEGFR2) and 2 μM Tyr 01 in 50 mM HEPES pH 7.5, 0.01% BRIJ-35, 10 mM MgCl2, 1 mM EGTA. After the 1 hour Kinase Reaction incubation, 5 μL of a 1:256 dilution of Development Reagent B is added.

The target of another test is CSF1R (FMS) (Homo sapiens, UniProt P07333). The test can be described thus: Z'-LYTE SelectScreen biochemical kinase assay CSF1R (FMS).
Text: as §1, §2, §3, §4, §5, §6, §7, §8
The 2×CSF1R (FMS)/Tyr 01 mixture is prepared in 50 mM HEPES pH 7.5, 0.01% BRIJ-35, 10 mM MgCl2, 1 mM EGTA. The final 10 μL Kinase Reaction consists of 0.2-40 ng CSF1R (FMS) and 2 μM Tyr 01 in 50 mM HEPES pH 7.5, 0.01% BRIJ-35, 10 mM MgCl2, 1 mM EGTA. After the 1 hour Kinase Reaction incubation, 5 μL of a 1:256 dilution of Development Reagent B is added.

[1] abbreviates: 10 μmolar compound concentration, ATP at Km app, read-out: PTK2 (FAK) inhibition.
[2] abbreviates: read-out: % Inhibition mean PTK2 (FAK).
[3] abbreviates: 10 μmolar compound concentration, ATP at Km app, read-out: CDK5/p35 inhibition.
[4] abbreviates: read-out: % Inhibition mean CDK5/p35.
[5] abbreviates: 10 μmolar compound concentration, ATP at Km app, read-out: KDR (VEGFR2) inhibition.
Where [6] appears, read: read-out: % Inhibition mean KDR (VEGFR2).
Where [7] appears, read: 10 μmolar compound concentration, ATP at Km app, read-out: CSF1R (FMS) inhibition.
Setting [8] is: read-out: % Inhibition mean CSF1R (FMS).

Like-named read-outs stand apart in the source and are kept apart here.

Chain of CDK5/p35 (Q00535 whole entry): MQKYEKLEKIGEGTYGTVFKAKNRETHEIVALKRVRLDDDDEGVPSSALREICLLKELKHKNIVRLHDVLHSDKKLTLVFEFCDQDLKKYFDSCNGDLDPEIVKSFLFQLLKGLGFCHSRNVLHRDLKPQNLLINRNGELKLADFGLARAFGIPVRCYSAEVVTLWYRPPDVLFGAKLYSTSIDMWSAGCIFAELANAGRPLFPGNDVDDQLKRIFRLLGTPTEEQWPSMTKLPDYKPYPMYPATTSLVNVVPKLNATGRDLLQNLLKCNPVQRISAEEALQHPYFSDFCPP
Chain of CDK5/p35 (Q15078 whole entry partner): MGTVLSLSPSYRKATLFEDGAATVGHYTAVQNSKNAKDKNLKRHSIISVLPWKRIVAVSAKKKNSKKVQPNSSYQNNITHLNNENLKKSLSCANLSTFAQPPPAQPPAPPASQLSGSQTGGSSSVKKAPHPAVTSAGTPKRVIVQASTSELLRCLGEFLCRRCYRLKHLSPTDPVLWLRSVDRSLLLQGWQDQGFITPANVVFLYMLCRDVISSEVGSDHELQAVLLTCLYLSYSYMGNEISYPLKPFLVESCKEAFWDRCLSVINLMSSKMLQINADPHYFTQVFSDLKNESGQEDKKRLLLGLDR
Chain of CSF1R (FMS) (P07333 20-972): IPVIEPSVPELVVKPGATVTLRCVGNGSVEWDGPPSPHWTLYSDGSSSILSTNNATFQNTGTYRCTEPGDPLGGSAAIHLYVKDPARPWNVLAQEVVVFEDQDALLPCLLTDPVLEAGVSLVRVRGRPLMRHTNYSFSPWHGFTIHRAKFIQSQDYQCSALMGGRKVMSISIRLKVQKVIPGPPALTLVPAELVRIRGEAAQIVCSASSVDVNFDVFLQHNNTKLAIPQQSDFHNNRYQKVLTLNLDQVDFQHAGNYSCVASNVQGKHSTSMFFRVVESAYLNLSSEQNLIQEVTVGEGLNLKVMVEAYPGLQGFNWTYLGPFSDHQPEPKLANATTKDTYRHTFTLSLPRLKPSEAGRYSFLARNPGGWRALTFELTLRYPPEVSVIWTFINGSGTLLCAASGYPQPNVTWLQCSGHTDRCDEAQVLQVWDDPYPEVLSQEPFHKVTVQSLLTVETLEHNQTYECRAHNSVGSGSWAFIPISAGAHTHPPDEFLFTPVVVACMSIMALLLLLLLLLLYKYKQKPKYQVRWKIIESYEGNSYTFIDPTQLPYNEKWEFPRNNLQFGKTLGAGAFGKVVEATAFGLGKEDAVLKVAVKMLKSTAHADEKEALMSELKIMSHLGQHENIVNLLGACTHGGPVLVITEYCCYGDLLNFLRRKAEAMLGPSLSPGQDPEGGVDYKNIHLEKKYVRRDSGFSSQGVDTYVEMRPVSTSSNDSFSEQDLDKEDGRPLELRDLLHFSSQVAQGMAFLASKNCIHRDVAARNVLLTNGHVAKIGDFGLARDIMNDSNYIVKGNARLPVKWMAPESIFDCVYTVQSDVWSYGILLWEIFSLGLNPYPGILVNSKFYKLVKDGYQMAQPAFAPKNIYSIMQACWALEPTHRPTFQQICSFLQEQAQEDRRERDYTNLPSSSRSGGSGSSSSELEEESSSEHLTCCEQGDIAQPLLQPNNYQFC
Chain of PTK2 (FAK) (Q05397 whole entry): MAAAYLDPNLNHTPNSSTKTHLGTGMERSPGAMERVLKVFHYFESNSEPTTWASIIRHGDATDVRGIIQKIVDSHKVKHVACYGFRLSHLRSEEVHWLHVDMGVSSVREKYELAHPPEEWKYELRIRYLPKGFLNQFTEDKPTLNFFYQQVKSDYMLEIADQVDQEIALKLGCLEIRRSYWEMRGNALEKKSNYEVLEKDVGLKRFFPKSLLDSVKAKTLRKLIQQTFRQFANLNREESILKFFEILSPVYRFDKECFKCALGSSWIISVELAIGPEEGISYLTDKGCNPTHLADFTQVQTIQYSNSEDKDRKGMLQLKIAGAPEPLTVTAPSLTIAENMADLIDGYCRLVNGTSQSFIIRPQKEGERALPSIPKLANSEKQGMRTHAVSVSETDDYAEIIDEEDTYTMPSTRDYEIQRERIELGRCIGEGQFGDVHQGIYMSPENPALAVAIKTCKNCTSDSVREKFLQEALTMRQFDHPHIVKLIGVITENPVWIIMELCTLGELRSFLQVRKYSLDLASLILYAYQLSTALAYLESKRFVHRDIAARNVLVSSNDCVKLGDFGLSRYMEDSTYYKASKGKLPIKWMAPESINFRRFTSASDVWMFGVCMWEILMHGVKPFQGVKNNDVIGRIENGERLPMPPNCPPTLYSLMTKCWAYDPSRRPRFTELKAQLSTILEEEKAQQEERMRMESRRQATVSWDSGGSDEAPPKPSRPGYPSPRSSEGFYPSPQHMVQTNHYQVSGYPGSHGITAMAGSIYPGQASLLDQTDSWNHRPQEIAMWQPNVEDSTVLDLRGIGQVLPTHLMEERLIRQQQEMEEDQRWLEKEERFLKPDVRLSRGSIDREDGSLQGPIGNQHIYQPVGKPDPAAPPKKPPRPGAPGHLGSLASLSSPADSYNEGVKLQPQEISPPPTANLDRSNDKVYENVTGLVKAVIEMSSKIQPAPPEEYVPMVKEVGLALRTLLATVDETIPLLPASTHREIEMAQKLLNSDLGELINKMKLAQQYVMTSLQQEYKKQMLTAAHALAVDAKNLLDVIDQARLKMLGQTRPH
Chain of KDR (VEGFR2) (P35968 20-1356): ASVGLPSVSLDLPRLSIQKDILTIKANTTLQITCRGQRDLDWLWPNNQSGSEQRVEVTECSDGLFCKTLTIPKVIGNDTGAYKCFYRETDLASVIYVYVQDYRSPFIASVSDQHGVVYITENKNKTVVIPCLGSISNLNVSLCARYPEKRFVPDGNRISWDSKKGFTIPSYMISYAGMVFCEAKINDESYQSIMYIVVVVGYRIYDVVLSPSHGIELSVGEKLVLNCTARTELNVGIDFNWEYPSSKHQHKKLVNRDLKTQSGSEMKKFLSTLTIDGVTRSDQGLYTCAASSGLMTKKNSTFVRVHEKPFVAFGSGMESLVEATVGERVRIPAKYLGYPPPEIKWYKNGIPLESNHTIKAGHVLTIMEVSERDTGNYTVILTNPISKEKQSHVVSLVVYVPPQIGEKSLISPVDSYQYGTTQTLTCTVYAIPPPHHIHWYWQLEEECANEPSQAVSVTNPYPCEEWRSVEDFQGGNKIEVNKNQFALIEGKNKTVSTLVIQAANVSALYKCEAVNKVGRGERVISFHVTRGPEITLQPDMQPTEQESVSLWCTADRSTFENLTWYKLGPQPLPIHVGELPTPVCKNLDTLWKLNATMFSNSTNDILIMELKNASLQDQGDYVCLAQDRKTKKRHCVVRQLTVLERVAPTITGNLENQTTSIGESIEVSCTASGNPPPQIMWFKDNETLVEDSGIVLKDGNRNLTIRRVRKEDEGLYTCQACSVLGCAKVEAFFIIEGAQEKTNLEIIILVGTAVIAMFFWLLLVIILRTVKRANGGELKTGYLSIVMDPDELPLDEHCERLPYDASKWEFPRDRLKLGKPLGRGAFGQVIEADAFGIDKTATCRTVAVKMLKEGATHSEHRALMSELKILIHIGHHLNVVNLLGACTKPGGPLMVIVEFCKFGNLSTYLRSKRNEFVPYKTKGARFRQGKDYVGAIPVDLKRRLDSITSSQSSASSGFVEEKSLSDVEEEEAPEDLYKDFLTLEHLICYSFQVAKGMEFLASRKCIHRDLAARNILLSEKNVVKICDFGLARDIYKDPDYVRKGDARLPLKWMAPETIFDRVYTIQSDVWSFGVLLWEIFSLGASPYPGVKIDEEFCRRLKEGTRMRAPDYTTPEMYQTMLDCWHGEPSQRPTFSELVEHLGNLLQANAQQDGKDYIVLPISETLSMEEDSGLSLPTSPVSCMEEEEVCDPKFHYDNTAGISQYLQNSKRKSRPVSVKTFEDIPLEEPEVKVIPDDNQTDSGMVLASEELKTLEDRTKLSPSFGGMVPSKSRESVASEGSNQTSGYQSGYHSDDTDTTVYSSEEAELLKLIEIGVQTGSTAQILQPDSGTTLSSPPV

Take `CCn1ncc2c1CCC(Nc1nc3c(-c4ccc(F)cc4)cccn3n1)C2` (stereo not drawn) [Example 55, (1-Ethyl-4,5,6,7-tetrahydro-1H-indazol-5-yl)-[8-(4-fluoro-phenyl)-[1,2,4]triazolo[1,5-a]pyridine-2-yl]-amine]: the inhibition at 10 µM was under 40% at PTK2 (FAK) (setting [1]); 8% on PTK2 (FAK) (setting [2]); under 40% on CDK5/p35 (setting [3]); 13% on CDK5/p35 (setting [4]); under 40% at KDR (VEGFR2) (setting [5]); 12% on KDR (VEGFR2) (setting [6]). In addition, the figures for the inhibition at 10 µM at CSF1R (FMS) (setting [7]) and on CSF1R (FMS) (setting [8]) were under 40% and 34%, respectively.
Regarding `CCCCCn1ncc2c1CCC(Nc1nc3c(-c4ccc(F)cc4C)cccn3n1)C2` (stereo not drawn) [Example 47, [8-(4-fluoro-2-methyl-phenyl)-[1,2,4]triazolo[1,5-a]pyridine-2-yl]-(1-pentyl-4,5,6,7-tetrahydro-1H-indazol-5-yl)-amine], the inhibition at 10 µM on PTK2 (FAK) (setting [1]) was under 40%; on PTK2 (FAK) (setting [2]), 19%; at CDK5/p35 (setting [3]), under 40%; at CDK5/p35 (setting [4]), 13%; at KDR (VEGFR2) (setting [5]), under 40%; on KDR (VEGFR2) (setting [6]), 6%. For the same compound, the inhibition at 10 µM at CSF1R (FMS) (setting [7]) was under 40%; on CSF1R (FMS) (setting [8]), 15%.
As for `CCn1ncc2c1CCC(Nc1nc3c(-c4ccccc4)cccn3n1)C2` (stereo not drawn) [Example 57, (1-Ethyl-4,5,6,7-tetrahydro-1H-indazol-5-yl)-(8-phenyl-[1,2,4]triazolo[1,5-a]pyridine-2-yl)-amine], the inhibition at 10 µM is under 40% on PTK2 (FAK) (setting [1]); 16% at PTK2 (FAK) (setting [2]); under 40% on CDK5/p35 (setting [3]); 26% at CDK5/p35 (setting [4]); under 40% on KDR (VEGFR2) (setting [5]); 18% on KDR (VEGFR2) (setting [6]). For the same compound, the inhibition at 10 µM on CSF1R (FMS) (setting [7]) is 40 to 80%; on CSF1R (FMS) (setting [8]) it was 72%.
Take `CC1(C)C(=O)Nc2ccc(Nc3nc4c(-c5cccc(F)c5)cccn4n3)cc21` [Cpd. 263 in WO09155551, reference compound]: the inhibition at 10 µM on PTK2 (FAK) (setting [1]) was over 80%; on PTK2 (FAK) (read-out: % Inhibition mean), 101%; on CDK5/p35 (setting [3]), over 80%; at CDK5/p35 (read-out: % Inhibition mean), 83%; on KDR (VEGFR2) (setting [5]), over 80%; on KDR (VEGFR2) (read-out: % Inhibition mean), 99%. The inhibition at 10 µM on CSF1R (FMS) (setting [7]) is over 80%; on CSF1R (FMS) (read-out: % Inhibition mean), 93%.
Consider `Fc1cccc(-c2cccn3nc(Nc4ccc5[nH]cnc5c4)nc23)c1` [Cpd. 293 in WO09155551, reference compound], for which the inhibition at 10 µM on PTK2 (FAK) (setting [1]) was over 80%; on PTK2 (FAK) (read-out: % Inhibition mean), 94%; at CDK5/p35 (setting [3]) it was over 80%; on CDK5/p35 (read-out: % Inhibition mean) it was 90%; at KDR (VEGFR2) (setting [5]), over 80%; at KDR (VEGFR2) (read-out: % Inhibition mean), 98%. Besides, the inhibition at 10 µM is over 80% on CSF1R (FMS) (setting [7]) and 90% on CSF1R (FMS) (read-out: % Inhibition mean).
Take `CCn1ncc2c1CCC(Nc1nc3c(-c4cnccc4OC)cccn3n1)C2` (stereo not drawn) [Example 68, (1-Ethyl-4,5,6,7-tetrahydro-1H-indazol-5-yl)-[8-(4-methoxy-pyridin-3-yl)-[1,2,4]triazolo[1,5-a]pyridine-2-yl]-amine]: the inhibition at 10 µM at PTK2 (FAK) (setting [1]) is under 40%; on PTK2 (FAK) (setting [2]) it was 28%; at CDK5/p35 (setting [3]), 40 to 80%; at CDK5/p35 (setting [4]), 44%; at KDR (VEGFR2) (setting [5]), under 40%; on KDR (VEGFR2) (setting [6]) it was 18%. Besides, the inhibition at 10 µM on CSF1R (FMS) (setting [7]) was 40 to 80%; on CSF1R (FMS) (setting [8]), 66%.
As to `CCCCn1ncc2c1CCC(Nc1nc3c(-c4ccc(F)cc4C)cccn3n1)C2` (stereo not drawn) [Example 46, [8-(4-fluoro-2-methyl-phenyl)-[1,2,4]triazolo[1,5-a]pyridine-2-yl]-(1-butyl-4,5,6,7-tetrahydro-1H-indazol-5-yl)-amine], the inhibition at 10 µM on PTK2 (FAK) (setting [1]) was under 40%; at PTK2 (FAK) (setting [2]), 24%; on CDK5/p35 (setting [3]), under 40%; on CDK5/p35 (setting [4]), 34%; at KDR (VEGFR2) (setting [5]) it was under 40%; on KDR (VEGFR2) (setting [6]), 3%. Further, the inhibition at 10 µM on CSF1R (FMS) (setting [7]) was under 40%; on CSF1R (FMS) (setting [8]), 24%.
On to `CCn1ncc2c1CCC(Nc1nc3c(-c4cncc(Cl)c4)cccn3n1)C2` (stereo not drawn) [Example 73, [8-(5-Chloro-pyridin-3-yl)-[1,2,4]triazolo[1,5-a]pyridine-2-yl]-(1-ethyl-4,5,6,7-tetrahydro-1H-indazol-5-yl)-amine], for which the inhibition at 10 µM on PTK2 (FAK) (setting [1]) is under 40%; on PTK2 (FAK) (setting [2]), 25%; at CDK5/p35 (setting [3]), 40 to 80%; at CDK5/p35 (setting [4]), 56%; at KDR (VEGFR2) (setting [5]), under 40%; on KDR (VEGFR2) (setting [6]) it was 8%. Besides, the inhibition at 10 µM was 40 to 80% on CSF1R (FMS) (setting [7]) and 79% at CSF1R (FMS) (setting [8]).
For the compound `CCn1ncc2c1CCC(Nc1nc3c(-c4ccc(C)nc4)cccn3n1)C2` (stereo not drawn) [Example 67, (1-Ethyl-4,5,6,7-tetrahydro-1H-indazol-5-yl)-[8-(6-methyl-pyridin-3-yl)-[1,2,4]triazolo[1,5-a]pyridine-2-yl]-amine], the inhibition at 10 µM was under 40% at PTK2 (FAK) (setting [1]); 27% on PTK2 (FAK) (setting [2]); under 40% on CDK5/p35 (setting [3]); 35% at CDK5/p35 (setting [4]); under 40% at KDR (VEGFR2) (setting [5]); 15% on KDR (VEGFR2) (setting [6]). Moreover, the inhibition at 10 µM is under 40% at CSF1R (FMS) (setting [7]) and 29% at CSF1R (FMS) (setting [8]).

(Values after US11339161B2, “Triazolo pyridines as modulators of gamma-secretase” (Boehringer Ingelheim International GmbH, priority 2017, dated 2022).)
